How the values were obtained:
[1] = In vitro human hepatocyte stability; type: in vitro ADME; details: cryopreserved human hepatocytes (pooled donor), human hepatocytes 0.5×10^6 cells/mL, read-out: Scaled-up unbound CLint
Experimental: The metabolic stability of test articles (1 μM) in commercially sourced, pooled donor, cryopreserved human hepatocytes (0.5×10^6 cells/mL) was determined in duplicate. The CLint reactions (250 μL) were initiated by addition of test compound. Aliquots (25 μL) were taken at 0, 15, 30, 45, 60, 90, 120 and 240 minutes and then protein crashed with ice-cold acetonitrile containing internal standard then centrifuged (3220 g for 25 minutes). Supernatant was used for LC-MS/MS analysis. The in vitro half-life (in vitro t1/2) was determined from the slope value: in vitro t1/2=−0.693/k. Conversion of the in vitro t1/2 (in min) into the scale-up unbound intrinsic clearance (Scaled-up unbound CLint, in mL/min/kg) was done using the following equation (mean of duplicate determinations), with data shown in Table 5: Scaled-up unbound CLint=kV/N×scaling factor. V=incubation volume (0.25 mL); N=number of hepatocytes per well ([…]). Scaling factors for in vivo intrinsic clearance prediction are listed below: […]

MAGL = target: T1, MAGL (Mus musculus, UniProt O35678); test: In vivo MAGL inhibition in mouse brain proteomes after oral gavage; details: 5 mg/kg oral gavage, 4 h after administration, read-out: MAGL % inh. 5 mg/kg (mouse)
T1 construct: brain proteomes were prepared and analyzed according to previously established methods; from tissue; host or cells: brain of wild-type C57Bl/6J mice
T1 sequence (O35678 1-303): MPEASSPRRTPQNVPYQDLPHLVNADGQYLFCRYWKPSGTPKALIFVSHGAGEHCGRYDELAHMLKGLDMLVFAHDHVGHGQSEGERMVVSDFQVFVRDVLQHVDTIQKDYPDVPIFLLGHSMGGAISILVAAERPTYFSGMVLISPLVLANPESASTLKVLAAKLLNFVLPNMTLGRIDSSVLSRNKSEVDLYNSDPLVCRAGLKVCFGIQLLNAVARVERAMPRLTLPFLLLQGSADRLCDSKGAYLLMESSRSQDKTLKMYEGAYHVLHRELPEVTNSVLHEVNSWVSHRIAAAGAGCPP
Experimental: Inhibitors were administered to wild-type C57B1/6J by oral gavage in a vehicle of polyethylene glycol. Each animal was sacrificed 4 h following administration and brain proteomes were prepared and analyzed according to previously established methods (See Niphakis, M. J., et al. (2011) ACS Chem. Neurosci. and Long, J. Z., et al. Nat. Chem. Biol. 5:37-44).

[2] = test system: rat formalin paw model of inflammatory pain; test: Rat formalin paw model of inflammatory pain; type: in vivo
Experimental: In the rat formalin paw model formalin is administered into the right […] of a rat in order to induce pain (observed by hind limb licking duration and frequency).
Male Sprague Dawley rats were divided into three cohorts to enable testing in the Laboras™ equipment to be carried out over three days in a balanced design to give treatment groups of 10. On the day of the study, male Sprague Dawley rats were weighed, tail marked and dosed orally with vehicle, test compound (0.1, 0.3, 0.6, 1, 3 or 10 mg/kg) or pregabalin (30 mg/kg) 4 h pre-test using a 5 mL/kg dosing volume. For Example 6 the vehicle used was 0.5% methylcellulose in water and for Example 8 the vehicle used was 20% HP-b-CD. Up to six animals were dosed at a time. After 4 h, rats received an intraplantar injection of 50 μL of a 2.5% v/v formalin solution into the right hind paw. Rats were immediately placed into the Laboras™ cages and data acquisition started. The primary measures recorded by Laboras™ for the formalin paw model are hind limb licking duration and frequency. Locomotion is also reported as maximum speed, average speed when moving or over the whole-time bin and distance travelled. After 40 min, when data acquisition was complete, rats were removed from the cages.
On removal from the test cages, rats were anaesthetised with the gaseous anaesthetic isoflu-rane (5% v/v isoflurane in oxygen) and blood samples were collected by cardiac puncture. Brains were then removed, rinsed in phosphate buffered saline (PBS), hemi-sected and frozen separately in liquid nitrogen.
Data were analysed with Statistica software (TIBCO, USA version 11.1). All data are expressed as means±standard error of the mean (sem) to one decimal place. […] Time course data were analysed by repeated measures analysis of variance (ANOVA) followed by one-way ANOVAs at each time point and subsequent Dunnett's post hoc tests. […]

[3] = Thermodynamic solubility in PBS; type: physicochemical; details: aqueous buffer, thermodynamic from solid; PBS pH 7.4; 24 hours at RT
Experimental: The thermodynamic solubility of test article was determined in PBS at pH 7.4 in duplicate. The test article (1.5 mg) in PBS was incubated for 24 hours at RT with shaking at 1100 rpm. Sample was then filtered using a vacuum manifold, diluted, and analyzed by LC-MS/MS. Chromatographic conditions: Phenomenex Synergi 4μ Hydro-PR 80A column (2.0×30 mm) coupled with pre-guard column; mobile phase=0.1% formic acid in acetonitrile and 0.1% formic acid in water; flowrate=0.65 mL/min; column temperature=40 degrees C.; injection volume: 10 μL.
Mobile phase: 0.1% formic acid in acetonitrile (A) and 0.1% formic acid in water (B)
Mass conditions: Turbo spray ion source; ESI ionization model; MRM scan type; Collison gas=6 L/min; Curtain gas=30 L/min; Nebulize gas=50 L/min; Auxiliary gas=50 L/min; Temperature=500 degrees C.; Ion spray voltage=+5500 v (positive MRM).
The filtered solution was analyzed and quantified against a standard of known concentration in DMSO using UPLC coupled with mass spectral peak identification and quantitation. Solubility values of the test articles were calculated using Microsoft Excel as follows (DF is the dilution factor): […]

SMILES: O=C(NC1CCOCC1)[C@H]1CC12CCN(C(=O)OC(C(F)(F)F)C(F)(F)F)CC2 [Example 8, 1,1,1,3,3,3-hexafluoropropan-2-yl (S)-1-[(oxan-4-yl)carbamoyl]-6-azaspiro[2.5]octane-6-carboxylate]
- CLint scaled at 1 μM [1]: 7.75 mL/min/kg
- inhibition at 5 mg/kg (MAGL): 100%
- measure of spontaneous pain (hind limb licking frequency) ([2]; 0.3 mg/kg and 0.6 mg/kg p.o. 4 h pre-test, late phase, FIG. 2): statistically significant reduction
- measure of spontaneous pain (hind limb licking frequency) ([2]; 1 mg/kg, 3 mg/kg and 10 mg/kg p.o. 4 h pre-test, both early and late phases, FIG. 2): statistically significant reduction
- solubility thermodynamic at 24 h [3]: 606 µg/mL

SMILES: O=C(Nc1cccnn1)[C@H]1CC12CCN(C(=O)OC(C(F)(F)F)C(F)(F)F)CC2 [Example 6, 1,1,1,3,3,3-hexafluoropropan-2-yl (S)-1-(pyridazin-3-ylcarbamoyl)-6-azaspiro[2.5]octane-6-carboxylate]
- CLint scaled at 1 μM [1]: 5.79 mL/min/kg
- inhibition at 5 mg/kg (MAGL): 100%
- measure of spontaneous pain (hind limb licking frequency) ([2]; 0.6 mg/kg, 3 mg/kg and 10 mg/kg p.o. 4 h pre-test, early and/or late phases, FIG. 1): statistically significant reduction
- solubility thermodynamic at 24 h [3]: 71.5 µg/mL
